Assay results taken from patent publication US11021481B2, “Substituted isoindolin-1-ones and 2,3-dihydro-1h-pyrrolo[3,4-c]pyridin-1-ones as HPK1 antagonists” (Nimbus Saturn, Inc., priority 2019, dated 2021).

biological target: HPK1 (Homo sapiens (Human), UniProt Q92918); assay: HPK1 biochemical enzyme assay (microfluidic mobility shift assay); conditions: 1.5 nM HPK1, ATP 1 mM final, 30 min preincubation, 60 min at RT, Caliper EZ Reader; read-out: HPK1 1000UMATP caliper IC50
How it was run: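 Mobility shift readout of HPK1 activity after a 60 min RT reaction with 1 mM ATP, 1 μM substrate and 5 mM MgCl2. Enzyme/substrate mix was first exposed to compounds for 30 min, using ten-point curves topping at 3 μM final.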

Chain of HPK1 (Q92918 whole entry): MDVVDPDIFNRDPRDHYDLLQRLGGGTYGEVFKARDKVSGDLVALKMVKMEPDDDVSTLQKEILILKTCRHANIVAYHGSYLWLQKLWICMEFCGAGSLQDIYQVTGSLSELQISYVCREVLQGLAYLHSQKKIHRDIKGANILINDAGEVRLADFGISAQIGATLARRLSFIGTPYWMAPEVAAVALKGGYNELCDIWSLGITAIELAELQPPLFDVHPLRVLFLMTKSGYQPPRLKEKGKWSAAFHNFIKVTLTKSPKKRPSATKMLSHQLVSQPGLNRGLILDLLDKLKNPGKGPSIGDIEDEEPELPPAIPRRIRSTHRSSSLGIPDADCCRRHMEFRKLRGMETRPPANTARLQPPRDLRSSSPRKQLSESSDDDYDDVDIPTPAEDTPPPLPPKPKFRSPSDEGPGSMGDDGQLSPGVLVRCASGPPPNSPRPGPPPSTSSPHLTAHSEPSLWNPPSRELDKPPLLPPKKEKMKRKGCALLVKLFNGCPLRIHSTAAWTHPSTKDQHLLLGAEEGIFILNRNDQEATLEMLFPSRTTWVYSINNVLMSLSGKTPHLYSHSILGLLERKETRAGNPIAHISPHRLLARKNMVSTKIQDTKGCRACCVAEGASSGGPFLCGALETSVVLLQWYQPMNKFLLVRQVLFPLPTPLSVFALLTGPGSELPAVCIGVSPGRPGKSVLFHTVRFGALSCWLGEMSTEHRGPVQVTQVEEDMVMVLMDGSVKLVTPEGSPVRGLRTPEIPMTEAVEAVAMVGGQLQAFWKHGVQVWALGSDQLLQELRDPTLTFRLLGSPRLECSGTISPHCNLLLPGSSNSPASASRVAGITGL

SMILES	IC50
CN1CCN(c2ccc(Nc3cnc(-c4ccnc5[nH]ccc45)c4c3C(=O)NC4)nc2)CC1 [I-20, 7-[[5-(4-methylpiperazin-1-yl)-2-pyridyl]amino]-4-(1H-pyrrolo[2,3-b]pyridin-4-yl)-2,3-dihydropyrrolo [3,4-c]pyridin-1-one]	< 100 nM
CN1CCN(c2ccc(Nc3ccc(-c4c[nH]c5ncccc45)c4c3C(=O)NC4)nc2)CC1 [I-21, 7-[[5-(4-methylpiperazin-1-yl)-2-pyridyl]amino]-4-(1H-pyrrolo[2,3-b]pyridin-3-yl)-isoindolin-1-one]	< 100 nM
CN1CCN(c2ccc(Nc3ccc(-c4cn(C)c5ncccc45)c4c3C(=O)NC4)nc2)CC1 [I-22, 7-[[5-(4-methylpiperazin-1-yl)-2-pyridyl]amino]-4-(1-methylpyrrolo [2,3-b]pyridin-3-yl)-isoindolin-1-one]	100 to 1000 nM
Cc1ccc2c(-c3ccc(Nc4ccc(N5CCN(C)CC5)cn4)c4c3CNC4=O)c[nH]c2c1 [I-23, 4-(6-methyl-1H-indol-3-yl)-7-[[5-(4-methylpiperazin-1-yl)-2-pyridyl]amino]isoindolin-1-one]	100 to 1000 nM
CN1CCN(c2ccc(Nc3ccc(-c4c[nH]c5ccncc45)c4c3C(=O)NC4)nc2)CC1 [I-24, 7-((5-(4-methylpiperazin-1-yl)pyridin-2-yl)amino)-4-(1H-pyrrolo[3,2-c]pyridin-3-yl)isoindolin-1-one]	< 100 nM
CN1CCN(c2ccc(Nc3ccc(-c4cccc5nccn45)c4c3C(=O)NC4)nc2)CC1 [I-25, 4-imidazo[1,2-a]pyridin-5-yl-7-[[5-(4-methylpiperazin-1-yl)-2-pyridyl]amino] isoindolin-1-one]	100 to 1000 nM
CN1CCN(c2ccc(Nc3ccc(-c4c[nH]c5cccnc45)c4c3C(=O)NC4)nc2)CC1 [I-26, 7-((5-(4-methylpiperazin-1-yl)pyridin-2-yl)amino)-4-(1H-pyrrolo[3,2-b]pyridin-3-yl)isoindolin-1-one]	100 to 1000 nM
Cc1[nH]c2ncccc2c1-c1ccc(Nc2ccc(N3CCN(C)CC3)cn2)c2c1CNC2=O [I-27, 7-[[5-(4-methylpiperazin-1-yl)-2-pyridyl]amino]-4-(2-methyl-1H-pyrrolo[2,3-b]pyridin-3-yl)-isoindolin-1-one]	100 to 1000 nM
COc1ccc2c(-c3ccc(Nc4ccc(N5CCN(C)CC5)cn4)c4c3CNC4=O)c[nH]c2c1 [I-28, 4-(6-methoxy-1H-indol-3-yl)-7-[[5-(4-methylpiperazin-1-yl)-2-pyridyl]amino] isoindolin-1-one]	< 100 nM
Cc1ccc2c(-c3ccc(Nc4ccc(N5CCN(C)CC5)cn4)c4c3CNC4=O)c[nH]c2n1 [I-29, 7-[[5-(4-methylpiperazin-1-yl)-2-pyridyl]amino]-4-(6-methyl-1H-pyrrolo[2,3-b]pyridin-3-yl)-isoindolin-1-one]	< 100 nM
Cc1cnc2[nH]cc(-c3ccc(Nc4ccc(N5CCN(C)CC5)cn4)c4c3CNC4=O)c2c1 [I-30, 7-[[5-(4-methylpiperazin-1-yl)-2-pyridyl]amino]-4-(5-methyl-1H-pyrrolo[2,3-b]pyridin-3-yl)-isoindolin-1-one]	100 to 1000 nM
CN1CCN(c2ccc(Nc3ccc(-c4ccnc5[nH]ccc45)c4c3C(=O)NC4)nc2)CC1 [I-31, 7-[[5-(4-methylpiperazin-1-yl)-2-pyridyl]amino]-4-(1H-pyrrolo[2,3-b]pyridin-4-yl)-isoindolin-1-one]	< 100 nM
CN1CCN(c2ccc(Nc3ccc(-c4c[nH]c5cc(F)ccc45)c4c3C(=O)NC4)nc2)CC1 [I-32, 4-(6-fluoro-1H-indol-3-yl)-7-[[5-(4-methylpiperazin-1-yl)-2-pyridyl]amino] isoindolin-1-one]	< 100 nM
CN1CCN(c2ccc(Nc3ccc(-c4ccnc5c4ccn5C)c4c3C(=O)NC4)nc2)CC1 [I-33, 7-[[5-(4-methylpiperazin-1-yl)-2-pyridyl]amino]-4-(1-methylpyrrolo [2,3-b]pyridin-4-yl)isoindolin-1-one]	< 100 nM
CCc1[nH]c2ccccc2c1-c1ccc(Nc2ccc(N3CCN(C)CC3)cn2)c2c1CNC2=O [I-34, 4-(2-ethyl-1H-indol-3-yl)-7-[[5-(4-methylpiperazin-1-yl)-2-pyridyl]amino] isoindolin-1-one]	< 100 nM
CN1CCN(c2ccc(Nc3ccc(-c4ccn5ccnc5c4)c4c3C(=O)NC4)nc2)CC1 [I-35, 4-imidazol[1,2-a]pyridin-7-yl-7-[[5-(4-methylpiperazin-1-yl)-2-pyridyl]amino] isoindolin-1-one]	100 to 1000 nM
CN1CCN(c2ccc(Nc3ccc(-c4ccn5ncnc5c4)c4c3C(=O)NC4)nc2)CC1 [I-36, 7-[[5-(4-methylpiperazin-1-yl)-2-pyridyl]amino]-4-([1,2,4]triazolo [1,5-a]pyridin-7-yl)isoindolin-1-one]	100 to 1000 nM
Cc1cc2[nH]cc(-c3ccc(Nc4ccc(N5CCN(C)CC5)cn4)c4c3CNC4=O)c2cn1 [I-37, 7-[[5-(4-methylpiperazin-1-yl)-2-pyridyl]amino]-4-(6-methyl-1H-pyrrolo[3,2-c]pyridin-3-yl)isoindolin-1-one]	< 100 nM
Cc1cc2c(-c3ccc(Nc4ccc(N5CCN(C)CC5)cn4)c4c3CNC4=O)ccnc2[nH]1 [I-38, 7-[[5-(4-methylpiperazin-1-yl)-2-pyridyl]amino]-4-(2-methyl-1H-pyrrolo[2,3-b]pyridin-4-yl)isoindolin-1-one]	< 100 nM
CN1CCN(c2ccc(Nc3ccc(-c4cnc5ccccn45)c4c3C(=O)NC4)nc2)CC1 [I-39, 4-(imidazo[1,2-a]pyridin-3-yl)-7-((5-(4-methylpiperazin-1-yl)pyridin-2-yl)amino)isoindolin-1-one]	< 100 nM
CN1CCN(c2ccc(Nc3ccc(-c4c(-c5ccccc5)[nH]c5ccccc45)c4c3C(=O)NC4)nc2)CC1 [I-40, 7-[[5-(4-methylpiperazin-1-yl)-2-pyridyl]amino]-4-(2-phenyl-1H-indol-3-yl)isoindolin-1-one]	< 100 nM
CN1CCN(c2ccc(Nc3ccc(-c4cccc5[nH]ccc45)c4c3C(=O)NC4)nc2)CC1 [I-41, 4-(1H-indol-4-yl)-7-[[5-(4-methylpiperazin-1-yl)-2-pyridyl]amino] isoindolin-1-one]	< 100 nM

Now from value to compound:

IC50	SMILES
< 100 nM	Cc1c[nH]c2nccc(-c3ccc(Nc4ccc(N5CCN(C)CC5)cn4)c4c3CNC4=O)c12 [I-42, 7-[[5-(4-methylpiperazin-1-yl)-2-pyridyl]amino]-4-(3-methyl-1H-pyrrolo[2,3-b]pyridin-4-yl)isoindolin-1-one]
< 100 nM	Cn1ccc2c(-c3ccc(Nc4ccc(N5CCNCC5)cn4)c4c3CNC4=O)ccnc21 [I-43]
100 to 1000 nM	CN1CCN(c2ccc(Nc3ccc(-c4cnc5c(ccn5C)c4)c4c3C(=O)NC4)nc2)CC1 [I-44, 7-[[5-(4-methylpiperazin-1-yl)-2-pyridyl]amino]-4-(1-methylpyrrolo [2,3-b]pyridin-5-yl)isoindolin-1-one]
< 100 nM	CN1CCN(c2ccc(Nc3ccc(-c4cnc5[nH]ccc5c4)c4c3C(=O)NC4)nc2)CC1 [I-45, 7-[[5-(4-methylpiperazin-1-yl)-2-pyridyl]amino]-4-(1H-pyrrolo[2,3-b]pyridin-5-yl)isoindolin-1-one]
< 100 nM	CN1CCN(c2ccc(Nc3ccc(-c4c[nH]c5ccccc45)c4c3C(=O)NC4)nc2)CC1 [I-46, 4-(1H-indol-3-yl)-7-[[5-(4-methylpiperazin-1-yl)-2-pyridyl]amino] isoindolin-1-one]
< 100 nM	COCCn1ccc2c(-c3ccc(Nc4ccc(N5CCN(C)CC5)cn4)c4c3CNC4=O)ccnc21 [I-47, 4-[1-(2-methoxyethyl)pyrrolo[2,3-b]pyridin-4-yl]-7-[[5-(4-methylpiperazin-1-yl)-2-pyridyl]amino] isoindolin-1-one]
100 to 1000 nM	CC(C)n1ccc2c(-c3ccc(Nc4ccc(N5CCN(C)CC5)cn4)c4c3CNC4=O)ccnc21 [I-48, 4-(1-isopropylpyrrolo [2,3-b]pyridin-4-yl)-7-[[5-(4-methylpiperazin-1-yl)-2-pyridyl]amino] isoindolin-1-one]
< 100 nM	CCn1ccc2c(-c3ccc(Nc4ccc(N5CCN(C)CC5)cn4)c4c3CNC4=O)ccnc21 [I-49]
100 to 1000 nM	Cc1nc2ccccn2c1-c1ccc(Nc2ccc(N3CCN(C)CC3)cn2)c2c1CNC2=O [I-50, 4-(2-methylimidazo [1,2-a]pyridin-3-yl-)-7-[[5-(4-methylpiperazin-1-yl)-2-pyridyl]amino] isoindolin-1-1-one]
< 100 nM	Cc1ccc2ncc(-c3ccc(Nc4ccc(N5CCN(C)CC5)cn4)c4c3CNC4=O)n2c1 [I-51, 4-(6-methylimidazo [1,2-a]pyridin-3-yl-)-7-[[5-(4-methylpiperazin-1-yl)-2-pyridyl]amino] isoindolin-1-1-one]
< 100 nM	Cc1cccn2c(-c3ccc(Nc4ccc(N5CCN(C)CC5)cn4)c4c3CNC4=O)cnc12 [I-52, 4-(8-methylimidazo [1,2-a]pyridin-3-yl-)-7-[[5-(4-methylpiperazin-1-yl)-2-pyridyl]amino] isoindolin-1-1-one]
100 to 1000 nM	CN1CCN(c2ccc(Nc3cnc(-c4c[nH]c5cc(F)ccc45)c4c3C(=O)NC4)nc2)CC1 [I-53, 4-(6-fluoro-1H-indol-3-yl)-7-[[5-(4-methylpiperazin-1-yl)-2-pyridyl]amino]-2,3-dihydropyrrolo [3,4-c]pyridin-1-one]
< 100 nM	Cc1cc2c(-c3ncc(Nc4ccc(N5CCN(C)CC5)cn4)c4c3CNC4=O)ccnc2[nH]1 [I-55, 7-[[5-(4-methylpiperazin-1-yl)-2-pyridyl]amino]-4-(2-methyl-1H-pyrrolo[2,3-b]pyridin-4-yl)-2,3-dihydropyrrolo [3,4-c]pyridin-1-one]
< 100 nM	CN1CCN(c2ccc(Nc3cnc(-c4cnc5ccccn45)c4c3C(=O)NC4)nc2)CC1 [I-56, 4-(Imidazo[1,2-a]pyridin-3-yl)-7-((5-(4-methylpiperazin-1-yl)pyridin-2-yl)amino)-2,3-dihydro-1H-pyrrolo[3,4-c]pyridin-1-one]
< 100 nM	CNC1CCN(c2ccc(Nc3ccc(-c4ccnc5[nH]ccc45)c4c3C(=O)NC4)nc2)CC1 [I-57, 7-[[5-[4-(methylamino)-1-piperidyl]-2-pyridyl]amino]-4-(1H-pyrrolo[2,3-b]pyridin-4-yl)isoindolin-1-one]
